Data reported in ChEMBL document CHEMBL1201862, “PubChem BioAssay data set” (2004).
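How tested: cells in 96-well plates exposed to compound for 48 hours at five concentrations. GI50: concentration for 50% inhibition of growth.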 Active and inactive are the calls of the source. Rule as the data show it: active = GI50 up to about 1.1 µM and inactive = higher.

How the values were obtained:
Test in all cases: NCI tumour cell line growth inhibition, 48 h
K562 = test system: K562
A549 = test system: A549
NCI/ADR-RES = test system: NCI/ADR-RES
PC-3 = test system: PC-3
SK-MEL-5 = test system: SK-MEL-5
DU-145 = test system: DU-145
A498 = test system: A498
SF-539 = test system: SF-539
SN12C = test system: SN12C
MOLT-4 = test system: MOLT-4
UO-31 = test system: UO-31
786-0 = test system: 786-0
CAKI-1 = test system: CAKI-1
UACC-257 = test system: UACC-257
HCT-116 = test system: HCT-116
T47D = test system: T47D
U-251 = test system: U-251
NCI-H522 = test system: NCI-H522
MDA-N = test system: MDA-N
HOP-92 = test system: HOP-92

Row | SMILES | GI50 (K562) | GI50 (A549) | GI50 (NCI/ADR-RES) | GI50 (PC-3) | GI50 (SK-MEL-5) | GI50 (DU-145) | GI50 (A498) | GI50 (SF-539) | GI50 (SN12C) | GI50 (MOLT-4) | GI50 (UO-31) | GI50 (786-0) | GI50 (CAKI-1) | GI50 (UACC-257) | GI50 (HCT-116) | GI50 (T47D) | GI50 (U-251) | GI50 (NCI-H522) | GI50 (MDA-N) | GI50 (HOP-92)
1 | OB1OCc2ccccc21 [BENZOXABOROLE] | 67.8 µM (inactive) | 33.8 µM (inactive) | 22.3 µM (inactive) | 20 µM (inactive) | 46.9 µM (inactive) | > 100 µM (inactive) | 34.5 µM (inactive) | 25.1 µM (inactive) | 39.7 µM (inactive) | 69.8 µM (inactive) | 32.4 µM (inactive) | 39.7 µM (inactive) | 34.7 µM (inactive) | 28.6 µM (inactive) | 44.4 µM (inactive) | > 100 µM (inactive) | 62.7 µM (inactive) |  |  | 
2 | CC(C)[C@@H]1NC(=O)[C@H]2N=C(O[C@@H]2C)[C@@H]2CCCN2C(=O)[C@H](Cc2ccccc2)NC(=O)[C@@H]2CSC(=N2)[C@@H](Cc2ccccc2)NC(=O)[C@@H]2CSC1=N2 | 9.38 µM (inactive) | 18.7 µM (inactive) | > 50 µM (inactive) | 21.8 µM (inactive) | > 50 µM (inactive) | > 50 µM (inactive) |  | 17.5 µM (inactive) | > 50 µM (inactive) | 26.8 µM (inactive) | > 50 µM (inactive) | > 50 µM (inactive) | > 50 µM (inactive) | > 50 µM (inactive) | > 50 µM (inactive) | > 50 µM (inactive) | > 50 µM (inactive) | 29.1 µM (inactive) | > 50 µM (inactive) | 
3 | C=C(Cl)C(=C)CCC(Cl)C(C)(C)Cl (configuration not stated) | > 100 µM (inactive) | > 100 µM (inactive) | > 100 µM (inactive) | > 100 µM (inactive) | > 100 µM (inactive) | > 100 µM (inactive) | > 100 µM (inactive) | > 100 µM (inactive) | > 100 µM (inactive) | > 100 µM (inactive) | > 100 µM (inactive) | > 100 µM (inactive) | > 100 µM (inactive) | > 100 µM (inactive) | > 100 µM (inactive) |  | > 100 µM (inactive) | > 100 µM (inactive) | > 100 µM (inactive) | > 100 µM (inactive)
4 | O=c1cnc2cc3ccccc3cc2[nH]1 | > 100 µM (inactive) | > 100 µM (inactive) | > 100 µM (inactive) | > 100 µM (inactive) | > 100 µM (inactive) |  | > 100 µM (inactive) |  | > 100 µM (inactive) | > 100 µM (inactive) | 46.9 µM (inactive) | > 100 µM (inactive) | > 100 µM (inactive) | > 100 µM (inactive) | > 100 µM (inactive) |  | > 100 µM (inactive) | > 100 µM (inactive) | > 100 µM (inactive) | > 100 µM (inactive)
5 | NC(Cc1ccc2nc3c4ccccc4c(=O)cc-3oc2c1)C(=O)O (configuration not stated) | > 100 µM (inactive) | 44.2 µM (inactive) | > 100 µM (inactive) | > 100 µM (inactive) | 18 µM (inactive) | > 100 µM (inactive) |  | > 100 µM (inactive) | > 100 µM (inactive) |  | > 100 µM (inactive) | > 100 µM (inactive) | > 100 µM (inactive) | 72.1 µM (inactive) | > 100 µM (inactive) | > 100 µM (inactive) | > 100 µM (inactive) |  | 16 µM (inactive) | > 100 µM (inactive)
6 | CCN(CC)C(=O)C1=C(C)NC(C)=C(C(=O)N(CC)CC)C1 | 41.4 µM (inactive) | > 100 µM (inactive) |  | > 100 µM (inactive) | > 100 µM (inactive) | > 100 µM (inactive) | > 100 µM (inactive) | > 100 µM (inactive) | > 100 µM (inactive) | > 100 µM (inactive) | 81.1 µM (inactive) | > 100 µM (inactive) | > 100 µM (inactive) | > 100 µM (inactive) | > 100 µM (inactive) | 58.1 µM (inactive) | > 100 µM (inactive) | > 100 µM (inactive) | > 100 µM (inactive) | > 100 µM (inactive)
7 | Cc1ccc(NCCN(C)C)c2c(=O)c3cc(O)ccc3sc12 | 1.5 µM (inactive) | 0.214 µM (active) |  | 1.22 µM (inactive) | 2.86 µM (inactive) | 2.18 µM (inactive) | 6.79 µM (inactive) | 3.55 µM (inactive) | 1.94 µM (inactive) | 0.0454 µM (active) | 4.23 µM (inactive) | 1.94 µM (inactive) | 1.31 µM (inactive) | 8 µM (inactive) | 1.96 µM (inactive) | 7.91 µM (inactive) | 1.63 µM (inactive) | 4.33 µM (inactive) | 2.04 µM (inactive) | 2.38 µM (inactive)
8 | COC(=O)C(=O)C(C(=O)C(=O)Nc1ccccc1C(=O)OC)c1nc2ccc(C(=O)c3ccccc3)cc2nc1O (configuration not stated) | 36.1 µM (inactive) | > 100 µM (inactive) | 18.8 µM (inactive) | 40.4 µM (inactive) | 53.7 µM (inactive) |  | 81.5 µM (inactive) | > 100 µM (inactive) | 64.7 µM (inactive) |  | 31.7 µM (inactive) | > 100 µM (inactive) | 30.5 µM (inactive) | > 100 µM (inactive) | > 100 µM (inactive) | 38.3 µM (inactive) | > 100 µM (inactive) | 24.1 µM (inactive) | 28.4 µM (inactive) | > 100 µM (inactive)
9 | CC(=O)c1cccc(NC(=O)C(=O)NNc2nnc(S)n2N)c1 | 4.85 µM (inactive) | 3.75 µM (inactive) |  | 3.27 µM (inactive) | 1.21 µM (inactive) | 6.58 µM (inactive) | 20.4 µM (inactive) | 6.18 µM (inactive) | 7.4 µM (inactive) | 3.6 µM (inactive) | 9.16 µM (inactive) | 11.3 µM (inactive) | 17.3 µM (inactive) | 2.75 µM (inactive) | 4 µM (inactive) | 3.5 µM (inactive) | 3.57 µM (inactive) | 6.37 µM (inactive) | 2.27 µM (inactive) | 13.9 µM (inactive)
10 | C[n+]1c2ccc(Cl)cc2nc2cc(-c3ccccc3)ccc21 | 7.13 µM (inactive) | 4.81 µM (inactive) | 33.2 µM (inactive) | 10.5 µM (inactive) | 6.68 µM (inactive) | 22.5 µM (inactive) |  | 15.8 µM (inactive) | 4.24 µM (inactive) | 1.61 µM (inactive) | 21.3 µM (inactive) | 35.3 µM (inactive) | 16.4 µM (inactive) | 15.6 µM (inactive) | 16.7 µM (inactive) |  | 5.21 µM (inactive) | 16 µM (inactive) |  | 
11 | Fc1ccccc1/N=c1\oc2ccc(Br)cc2cc1-c1nc2ccccc2[nH]1 | > 25.6 µM (inactive) | 7.01 µM (inactive) | 10 µM (inactive) | 7.4 µM (inactive) | 8.49 µM (inactive) | 17.1 µM (inactive) | 2.58 µM (inactive) | 1.87 µM (inactive) | 16.6 µM (inactive) | > 30.8 µM (inactive) | 8.04 µM (inactive) | 3.18 µM (inactive) | 9.55 µM (inactive) | > 19.8 µM (inactive) | 8.61 µM (inactive) | 38.3 µM (inactive) | 6 µM (inactive) | 1.75 µM (inactive) |  | 18 µM (inactive)
12 | O=C(c1ccc(Cl)cc1)c1cnc(Nc2ccccc2Cl)s1 | > 100 µM (inactive) | 23.9 µM (inactive) |  | 24.4 µM (inactive) | 18.5 µM (inactive) | 20.3 µM (inactive) | 3.91 µM (inactive) | 27.5 µM (inactive) | 22.3 µM (inactive) | > 100 µM (inactive) | 21.6 µM (inactive) | 17.5 µM (inactive) | 17.3 µM (inactive) | 21 µM (inactive) | 21 µM (inactive) | 19.3 µM (inactive) | 28.1 µM (inactive) | 23 µM (inactive) | 21.8 µM (inactive) | 27.2 µM (inactive)
13 | CC(C)Cc1cnc(CC(C)C)c(=O)[nH]1 | > 100 µM (inactive) | > 100 µM (inactive) |  | > 100 µM (inactive) | > 100 µM (inactive) | > 100 µM (inactive) | > 100 µM (inactive) |  | > 100 µM (inactive) | > 100 µM (inactive) | > 100 µM (inactive) | > 100 µM (inactive) | > 100 µM (inactive) | > 100 µM (inactive) | > 100 µM (inactive) | > 100 µM (inactive) | > 100 µM (inactive) |  | > 100 µM (inactive) | > 100 µM (inactive)
14 | Cc1ccccc1-c1nc2c(N)nc(N)nc2nc1N | 0.723 µM (active) | 3.22 µM (inactive) | 27 µM (inactive) | 4.46 µM (inactive) | > 100 µM (inactive) | 8.17 µM (inactive) |  | 22.5 µM (inactive) | 6.84 µM (inactive) | 3.77 µM (inactive) | 12 µM (inactive) | 7.23 µM (inactive) | 9.35 µM (inactive) | 86.3 µM (inactive) | 1.67 µM (inactive) |  | 4.33 µM (inactive) | 22.6 µM (inactive) | 4.56 µM (inactive) | 
15 | CC(=O)NC1C(CO)O[C@@H]2OC(C)(C)O[C@H]12 (some centres not stated) |  | > 100 µM (inactive) | > 100 µM (inactive) | > 100 µM (inactive) |  |  | > 100 µM (inactive) | > 100 µM (inactive) | > 100 µM (inactive) | > 100 µM (inactive) | > 100 µM (inactive) | > 100 µM (inactive) | > 100 µM (inactive) | > 100 µM (inactive) | > 100 µM (inactive) |  | > 100 µM (inactive) | > 100 µM (inactive) | > 100 µM (inactive) | > 100 µM (inactive)
